Where “and” joins values, the source holds several entries; their conditions need not be identical. Equal values may be shown once.
Test: Solubility assessment as a function of HPβCD concentration
Type: physicochemical
Description: Solubility studies were performed by the addition of a known mass of 5(6)-methoxy-2[[(methoxy-3,5-dimethyl-2-pyridinyl)-methyl]sulfinyl]-1H-benzimidazole and/or HP CD to a given volume of solvent system. Solubilities were determined by observation, as the maximum concentration at which 5(6)-methoxy-2-[[(4-methoxy-3,5-dimethyl-2-pyridinyl)-methyl]sulfinyl]-1H-benzimidazole completely dissolved. Additionally, concentrations of 5(6)-methoxy-2-[[(4-methoxy-3,5-dimethyl-2-pyridinyl)methyl]sulfinyl]-1H-benzimidazole and HP CD at set molar ratios were solubilized in systems of high pH (adjusted as high as 12.2, with 1N NaOH), the pH was adjusted (using 2N HCl) in a stepwise downward manner until precipitation occurred.
The solubility of 5(6)-methoxy-2-[[(4-methoxy-3,5-dimethyl-2-pyridinyl)-methyl]sulfinyl]-1H-benzimidazole was assessed as a function of HPβCD concentration in water. […] In general, the solubility of the active ingredient is influenced by solution pH.
The procedure according to Example 86 was repeated except that water with a borate buffer (pH of 8) was employed.
The procedure according to Example 86 was repeated except that water with a phosphate buffer (pH of 11) was employed.

## COc1ccc2[nH]c([S+]([O-])Cc3ncc(C)c(OC)c3C)nc2c1 (stereo not shown) [5(6)-methoxy-2-[[(4-methoxy-3,5-dimethyl-2-pyridinyl)-methyl]sulfinyl]-1H-benzimidazole]
water
  aqueous solubility: approximately 0.3 mg/mL and ~0.9 mM
  solubility as a function of HPβCD concentration: increase linearly
Water with a borate buffer (pH of 8)
  solubility as a function of HPβCD concentration: increase linearly
Water with a phosphate buffer (pH of 11)
  solubility as a function of HPβCD concentration: increase linearly

— patent publication US6706737B2, “Alkoxy substituted benzimidazole compounds, pharmaceutical preparations containing the same, and methods of using the same” (priority 1999, dated 2004)
